Test results taken from patent US20230364047A1, “USE OF ESTER GROUP-[…] PR[…] IN PREPARATION OF MEDICINE FOR TREATING DRY EYE SYNDROME” (CHANGCHUN GENESCIENCE PHARMACEUTICAL CO., LTD., priority 2020, published 2023).
Marks after values point to notes of the source that are not given here.

Tests used:
[1] = system: dry eye syndrome caused by castration of male rabbits; assay: Histopathology examination of harderian gland and meibomian gland in castrated male rabbits; assay type: in vivo, Japanese big-ear white rabbit; details: HE sections, in words
Procedure: (§1) 5, 2014-Oct. […] Body weight was measured on the first day and the last day of the quarantine period. • 7 Grouping and Identifying Method for Experimental Animals • 7.1 Identifying method for animals • 7.1.1 Quarantine period: fed in separate cages, tag hung on each cage, and no marking of animals. • 7.1.2 Administration observation period: marked by staining with saturated picric acid solution, and 5 rabbits in each group were marked in the following ways, respectively: head, back, tail, head and back, and white. • 7.2 Grouping of experimental animals: after the quarantine period was finished, 5 rabbits were randomly selected according to the body weight and used in the normal control group, and the rest rabbits were used in the modeling group. […] 5, 2014-Aug. 11, 2014 • 9.3 Date of grouping: Aug. 12, 2014, Sep. 15, 2014 • 9.4 Date of modeling: Aug. 12, 2014 • 9.5 Administration time: Sep. 15, 2014 • 9.6 Animal sacrifice time: Oct. 27, 2014 • 9.2 Duration of administration: two consecutive weeks from Sep. 15, 2014 to Sep. […]

[2] = system: dry eye syndrome caused by castration of male rabbits; assay: Corneal fluorescence staining (PI) score in castrated male rabbits; assay type: in vivo, Japanese big-ear white rabbit; details: score 0-4, x ± s, n=5
Procedure: as §1

[3] = Body weight and general state of castrated male rabbits during and after topical eye administration; details: x ± s, n=5
Procedure: (§2) 5, 2014-Oct. […] Body weight was measured on the first day and the last day of the quarantine period. • 7 Grouping and Identifying Method for Experimental Animals • 7.1 Identifying method for animals • 7.1.1 Quarantine period: fed in separate cages, tag hung on each cage, and no marking of animals. • 7.1.2 Administration observation period: marked by staining with saturated picric acid solution, and 5 rabbits in each group were marked in the following ways, respectively: head, back, tail, head and back, and white. • 7.2 Grouping of experimental animals: after the quarantine period was finished, 5 rabbits were randomly selected according to the body weight and used in the normal control group, and the rest rabbits were used in the modeling group. […] 5, 2014-Aug. 11, 2014 • 9.3 Date of grouping: Aug. 12, 2014, Sep. 15, 2014 • 9.4 Date of modeling: Aug. 12, 2014 • 9.5 Administration time: Sep. 15, 2014 • 9.6 Animal sacrifice time: Oct. 27, 2014 • 9.2 Duration of administration: two consecutive weeks from Sep. 15, 2014 to Sep. […] An aseptic towel was spread out, testicles at two sides were sequentially squeezed into the scrotum from abdominal cavity and clenched to prevent them from sliding, a small opening was cut on the scrotum with a sterilized blade, the testicles were squeezed out by force, the spermatic vein and vas deferens were ligated, the testicles and epididymis were cut out, the scrotum skin was sutured, and iodine tincture was coated locally to prevent infection. • 11.2 Administration method: administration was started on day 35 after the operation, at a prescribed dose for 14 consecutive days. • 11.3 Detection indexes: for each group, basal tear secretion (Schirmer I test), corneal fluorescence staining (PI) and tear film break-up time (BUT) were detected before the modeling and on days 0, 7, and 14 after the administration by performing surface anesthesia. • 11.3.1 Basal tear secretion (Schirmer I test): the 5 mm forepart of a qualitative filter paper (35 mm×6 mm) was reversely folded and placed in the lower eyelid bitamporal conjunctival sac, and the tear infiltration length (including the reversely-folded segment) of the test paper after 5 min was detected and recorded. • 11.3.2 Scoring criteria for corneal fluorescence staining (PI): 1% fluorescein sodium was applied to both eyes of a rabbit without subsequent rinsing, and a slit-lamp microscope was used for observation.

[4] = system: dry eye syndrome caused by castration of male rabbits; assay: Basal tear secretion (Schirmer I test) in castrated male rabbits; assay type: in vivo, Japanese big-ear white rabbit
Procedure: as §2

[5] = topical to the eyes for 14 days
[6] = castrated male rabbits, topical to the eyes, Schirmer I 5 min, x ± s, n=5

CCC(=O)O[C@H]1CC[C@H]2[C@@H]3CCC4=CC(=O)CC[C@]4(C)[C@H]3CC[C@]12C [Positive 2, testosterone propionate]
Histopathology of harderian gland and meibomian gland compared with the model group [1]: marked ameliorating
Corneal staining score, Day 28 after drug withdrawal [2, 5]: 3.0 ± 1.22
Corneal staining score, Day 7 of administration ([2]; topical to the eyes): 2.8 ± 0.22
Corneal staining score, Day 14 of administration ([2]; topical to the eyes): 2.2 ± 0.57*^Δ▴
Weight of rabbits, Day 7 after drug withdrawal [3, 5]: 3.0 ± 1.21 kg
Weight of rabbits, Day 14 after drug withdrawal [3, 5]: 3.3 ± 1.31 kg
Weight of rabbits, Day 21 after drug withdrawal [3, 5]: 3.6 ± 1.07 kg
Weight of rabbits, Day 28 after drug withdrawal [3, 5]: 4.0 ± 1.20 kg
Weight of rabbits, Day 7 of administration ([3]; topical to the eyes): 2.4 ± 1.10 kg
Weight of rabbits, Day 14 of administration ([3]; topical to the eyes): 2.6 ± 1.05 kg
Tear secretion, Day 28 after drug withdrawal ([4]; castrated male rabbits, topical to the eyes for 14 days, Schirmer I 5 min, x ± s, n=5): 12.2 ± 3.48 mm
Tear secretion, Day 7 of administration [4, 6]: 12.7 ± 2.84 mm
Tear secretion, Day 14 of administration [4, 6]: 14.8 ± 3.17*^Δ▴ mm
Tear secretion, effect in words ([4]; castrated rabbits, compared with the model group and the solvent group (P<0.05)): increased markedly
